System: Acute Gastric Ulcer of Rats
Experiment: Effect on acute gastric ulcer of rats (pyloric ligation method, Shay method)
Format: in vivo
Conditions: for Average Volume of Gastric Juice / Index of Ulcer (sum of the long diameter of each ulcer) / Inhibition Ratio of gastric juice / Inhibition Ratio of index of ulcer: SD female rats, 3 mg/kg via duodenum; for Average Volume of Gastric Juice / Index of Ulcer (sum of the long diameter of each ulcer): 6 hours after dosing; for Inhibition Ratio of gastric juice / Inhibition Ratio of index of ulcer: 6 hours, versus control group; for Inhibition of gastric juice secretion and ulceration compared with racemate: rats, result in words
Protocol: The effect of optically pure (+)/(−)-5-(1H-pyrrol-1-yl)-2-[[(4-methoxy-3-methyl-2-pyridyl)-methyl]sulfinyl]-1-hydro-benzimidazole on the acute gastric ulcer of rats were investigated using a pyloric ligation method (Shay method), and the results were compared with a normal control group and a racemate group. The specific test methods were as follows.
Twenty-six healthy SD female adult rats were divided randomly into 4 groups and fasted, except water, for 24 hours. Each rat was then anesthesized with 30 mg/kg Sodium Pentobarbital and subjected to pyloric ligation. After that, 3 groups of rats (treated group) were administered immediately via dodecadactylon with a racemate, a levo-enantiomer and a dextro-enantiomer of 5-(1H-pyrrol-1-yl)-2-[[(4-methoxy-3-methyl-2-pyridyl)-methyl]sulfinyl]-1-hydro-benzimidazole, respectively, at a dose of 3 mg/kg, and the other group (control group) is administered with the same volume of solvent.
All rats were then fasted including water for 6 hours followed by being sacrificed. The stomach was removed from rats after cardiac orifice ligation, and the volume of gastric juice was collected. After being fixed with 10% formalin solution, the stomach was incised along the greater curvature of stomach, the gastric wall was unwraped, and the degree and number of ulcers of the gastric mucosa were observed visually. Sum of the long diameter of each ulcer was defined as the index of ulcer. All rats were housed in metabolic cages during the test.

Question: `COc1ccnc(C[S+]([O-])c2nc3cc(-n4cccc4)ccc3[nH]2)c1C` (racemic) [Racemate, 5-(1H-pyrrol-1-yl)-2-[[(4-methoxy-3-methyl-2-pyridyl)-methyl]sulfinyl]-1-hydro-benzimidazole, reference compound] was tested. Which “Average Volume of Gastric Juice” value (3 mg/kg) did it give?
Answer: 3.2 ± 2.3 mL

Question: What about the “Index of Ulcer (sum of the long diameter of each ulcer)” value (3 mg/kg) of the same compound?
Answer: 14 ± 8 mm

Question: And the “Inhibition Ratio of gastric juice” value (3 mg/kg)?
Answer: 30.8%

Question: And the “Inhibition Ratio of index of ulcer” value (3 mg/kg)?
Answer: 41.8%

Question: `COc1ccnc(C[S+]([O-])c2nc3cc(-n4cccc4)ccc3[nH]2)c1C` (single isomer, unassigned; (+)) [Dextro-enantiomer, (+)-5-(1H-pyrrol-1-yl)-2-[[(4-methoxy-3-methyl-2-pyridyl)-methyl]sulfinyl]-1-hydro-benzimidazole] was tested. Which “Average Volume of Gastric Juice” value (3 mg/kg) did it give?
Answer: 2.6 ± 1.1 mL

Question: And the “Index of Ulcer (sum of the long diameter of each ulcer)” value (3 mg/kg)?
Answer: 6 ± 7 mm

Question: And the “Inhibition Ratio of index of ulcer” value?
Answer: 75.6%

Question: And the “Inhibition Ratio of gastric juice” value (3 mg/kg)?
Answer: 43.2%

Question: What about the “Inhibition of gastric juice secretion and ulceration compared with racemate” value (3 mg/kg) of the same compound?
Answer: more effective in inhibiting gastric juice secretion and ulceration as compared with their racemate

Question: How did the “Average Volume of Gastric Juice” value (3 mg/kg) turn out when `COc1ccnc(C[S+]([O-])c2nc3cc(-n4cccc4)ccc3[nH]2)c1C` (single isomer, unassigned; (-)) [Levo-enantiomer, (−)-5-(1H-pyrrol-1-yl)-2-[[(4-methoxy-3-methyl-2-pyridyl)-methyl]sulfinyl]-1-hydro-benzimidazole] was run?
Answer: 1.4 ± 1.0 mL

Question: What about the “Index of Ulcer (sum of the long diameter of each ulcer)” value (3 mg/kg) of the same compound?
Answer: 6 ± 6 mm

Question: And the “Inhibition Ratio of index of ulcer” value?
Answer: 75.6%

Question: What about the “Inhibition Ratio of gastric juice” value (3 mg/kg) of the same compound?
Answer: 68.3%

Question: What about the “Inhibition of gastric juice secretion and ulceration compared with racemate” value (3 mg/kg) of the same compound?
Answer: more effective in inhibiting gastric juice secretion and ulceration as compared with their racemate
